Holding throughout (type): cell-based
The test system of test [1] is Bifidobacterium breve YIT 12272 (BbY). Kind of test: Culture of BbY in whey culture medium with L-cystine or L-cysteine. Particulars: for concentration at which the viable cell count was maximum: whey simultaneous heating culture medium, 12 hours. How it is done:
(§1) A skimmed milk powder was dissolved in RO water at 12% (w/v), and the 12% (w/v) skimmed milk was adjusted to a pH of 4.6 with 5 N HCl, followed by centrifugation at 3,000×g for 5 minutes. Subsequently, the supernatant was adjusted to a pH of 6.5 with 5 N NaOH and was centrifuged at 10,000×g for 15 to 30 minutes. The supernatant was dispensed in 10 mL aliquots in a rimmed medium-sized test tube while replacing the headspace with nitrogen gas and sealed with a butyl rubber stopper. Subsequently, the supernatant was sterilized by heat in an autoclave at 115° C. for 30 minutes to provide a whey culture medium separated before heating. In addition, as in the skimmed milk culture medium, simultaneous heating culture medium was prepared in anaerobic conditions by adding L-cystine or L-cysteine before heating and then performing heat sterilization. The addition concentration of L-cystine or L-cysteine was adjusted to 0.001, 0.003, 0.005, 0.01, 0.03, 0.05, or 0.1% (w/v) as the final concentration.
(§2) Inoculation and culture were performed as in Example 1 except that only when BbY was cultured in the skimmed milk culture medium, the culture time was 9 hours.
As in Example 2, whey separated before heating and simultaneous heating culture media with L-cysteine was prepared. In addition, a culture medium in which L-cysteine was added after heat sterilization and immediately before inoculation (individual heating culture medium) was also prepared. The addition concentration of L-cysteine was 0.03 (w/v) % as the final concentration.
A skimmed milk powder was dissolved in RO water at 12% (w/v), and the 12% (w/v) skimmed milk was sterilized by heat in an autoclave at 115° C. for 30 minutes in anaerobic conditions by nitrogen gas and was then adjusted to a pH of 4.6 with 5 N HCl, followed by centrifugation at 3,000×g for 5 minutes. Subsequently, the supernatant was adjusted to a pH of 6.5 with 5 N NaOH and was centrifuged at 10,000×g for 15 to 30 minutes. The supernatant was dispensed in 10 mL aliquots in a pre-sterilized rimmed medium-sized test tube while replacing the headspace with nitrogen gas and sealed with a butyl rubber stopper to provide a whey culture medium separated after heating. In addition, as in the skimmed milk culture media of Example 1, in anaerobic conditions, a culture medium in which L-cysteine was added before heating and then heat sterilization was performed (simultaneous heating culture medium) and a culture medium in which addition was performed after heat sterilization and before adjustment to pH 4.6 (individual heating culture medium) were also prepared.
Inoculation and culture were performed as in Example 1.
Based on the viable cell counts in (iii), each viable cell count ratio was calculated by dividing the viable cell count in the simultaneous heating culture medium by the viable cell count in the individual heating culture medium.

For test [2], the system named is Bifidobacterium bifidum YIT 10347 (BF-1). Kind of test: Culture of BF-1 in whey culture medium with L-cystine or L-cysteine. Particulars: BF-1, whey simultaneous heating culture medium, 12 hours. How it is done: as §1, §2
Test [3] relates to Lactobacillus casei YIT 9029. Description: Culture of YIT 9029 in skimmed milk culture medium with L-cystine or L-cysteine. Particulars: YIT 9029, skimmed milk culture medium, 0.05 (w/v) %, 37° C., 12 hours, FIG. 1. How it is done:
Bifidobacterium breve YIT 12272 (hereinafter, referred to as BbY), Bifidobacterium bifidum YIT 10347 (hereinafter, referred to as BF-1), Lactobacillus casei YIT 9029 (hereinafter, referred to as YIT 9029), and Lactobacillus acidophilus YIT 0198 (hereinafter, referred to as YIT 0198) were used.
A skimmed milk powder (ABC, manufactured by MEGMILK SNOW BRAND Co., Ltd.) was dissolved in RO water at 12% (w/v), the solution was dispensed in 10 mL aliquots in a rimmed medium-sized test tube while replacing the headspace with nitrogen gas and sealed with a butyl rubber stopper. Subsequently, the solution was sterilized by heat in an autoclave (SX-500, manufactured by Tomy Seiko Co., Ltd.) at 115° C. for 30 minutes to provide a skimmed milk culture medium (additive-free culture medium). […]
The pH of a culture medium or a bacterial solution was measured using a desk-top pH meter (F52, manufactured by HORIBA, Ltd.). […]
Regardless of the bacterial strain, a bacterial solution was appropriately diluted with a 0.85% (w/v) sodium chloride aqueous solution (physiological saline solution). […] The grown colonies were counted as the viable cell count. […] Colonies were counted using a colony counter ProtoCOL (manufactured by Synoptics Ltd.).

Setting [4] is: whey separated after heating, L-cysteine, individual heating, culture time 9 h.
[5] abbreviates: whey separated after heating, L-cysteine, individual heating, culture time 12 h.
Setting [6] is: whey separated after heating, L-cysteine, simultaneous heating, culture time 9 h.
Where [7] appears, read: whey separated after heating, L-cysteine, simultaneous heating, culture time 12 h.
The mark [8] stands for this setting: whey separated before heating, L-cysteine 0.03 (w/v) %, individual heating, culture time 9 h.
[9] abbreviates: whey separated before heating, L-cysteine 0.03 (w/v) %, individual heating, culture time 12 h.
[10] abbreviates: whey separated before heating, L-cysteine 0.03 (w/v) %, simultaneous heating, culture time 9 h.
The mark [11] stands for this setting: whey separated before heating, L-cysteine 0.03 (w/v) %, simultaneous heating, culture time 12 h.

Turning to `Cl.N[C@@H](CS)C(=O)O` [L-cysteine, L-cysteine hydrochloride], the Acidity in test [1] (setting [4]) turned out to be 3.43 ml/9 g; in test [1] (setting [5]) it was 4.78 ml/9 g; in test [1] (setting [6]), 4.23 ml/9 g; in test [1] (setting [7]), 7.28 ml/9 g; in test [1] (setting [8]) it was 2.15 ml/9 g; in test [1] (setting [9]), 2.55 ml/9 g. For the same compound, the Acidity in test [1] (setting [10]) came out at 2.15 ml/9 g; in test [1] (setting [11]), 2.29 ml/9 g. The Viable cell count in test [1] (setting [4]) is 8.89 × 10^8 CFU/ml; in test [1] (setting [5]), 1.32 × 10^9 CFU/ml; in test [1] (setting [6]) it was 1.29 × 10^9 CFU/ml; in test [1] (setting [7]) it was 2.22 × 10^9 CFU/ml; in test [1] (setting [8]) it was 1.24 × 10^8 CFU/ml; in test [1] (setting [9]), 1.42 × 10^8 CFU/ml. The Viable cell count is recorded as 2.53 × 10^8 CFU/ml in test [1] (setting [10]) and 3.29 × 10^8 CFU/ml in test [1] (setting [11]). Also, the pH in test [1] (setting [4]) is given as 5.14; in test [1] (setting [5]), 4.81; in test [1] (setting [6]) it was 4.85; in test [1] (setting [7]), 4.32; in test [1] (setting [8]), 4.97; in test [1] (setting [9]) it was 4.82. The pH was determined as 5.01 in test [1] (setting [10]) and 4.85 in test [1] (setting [11]). Further, the “Viable cell count ratio (simultaneous/individual)” value amounted to 1.45 in test [1] (whey separated after heating, culture time 9 h); 1.68 in test [1] (whey separated after heating, culture time 12 h); 2.04 in test [1] (whey separated before heating, culture time 9 h); 2.31 in test [1] (whey separated before heating, culture time 12 h). The “concentration at which the viable cell count was maximum” value in test [1] is on record as 0.01 % (w/v); in test [2] it was 0.03 % (w/v). Also, the “growth promotion by addition” value in test [3] is “not observed”.

For the compound `N[C@@H](CSSC[C@H](N)C(=O)O)C(=O)O` [L-cystine], the “concentration at which the viable cell count was maximum” value in test [1] is given as 0.01 % (w/v); in test [2], 0.03 % (w/v). The “growth promotion by addition” value in test [3] is recorded as “not observed”.
